# Assays:
# Test in all cases: relative viability (nuclei count vs DMSO), 5 days (fraction); higher = more cells survive
# SW 1573 = tested on: SW 1573
# Method in brief: (§1)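 After 5 days of treatment, lung cancer cells in 1536-well plates were fixed and stained in a single step (final 0.05% Triton X-100, 1% formaldehyde, 1 ug/ml Hoechst) and their nuclei counted on 4× images. Treatment had been applied by pin tool the day after seeding as one drug alone or as a fixed anchor-drug dose with five library-drug doses (not always all listed) in √10 steps. Relative viability is the nuclei count of treated wells divided by that of vehicle wells, and values are medians of duplicate plates.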
# NCI-H1355 = tested on: NCI-H1355
# Method in brief: as §1
# SK-LU-1 = tested on: SK-LU-1
# Method in brief: as §1
# NCI-H1650 = tested on: NCI-H1650
# Method in brief: as §1
# UMC-11 = tested on: UMC-11
# Method in brief: as §1
# EKVX = tested on: EKVX
# Method in brief: as §1
# NCI-H520 = tested on: NCI-H520
# Method in brief: as §1
# NCI-H1792 = tested on: NCI-H1792
# Method in brief: as §1
# NCI-H2342 = tested on: NCI-H2342
# Method in brief: as §1
# EMC-BAC-2 = tested on: EMC-BAC-2
# Method in brief: as §1
# CAL-12T = tested on: CAL-12T
# Method in brief: as §1
# NCI-H2009 = tested on: NCI-H2009
# Method in brief: as §1
# NCI-H2085 = tested on: NCI-H2085
# Method in brief: as §1
# NCI-H522 = tested on: NCI-H522
# Method in brief: as §1
# NCI-H661 = tested on: NCI-H661
# Method in brief: as §1
# SK-MES-1 = tested on: SK-MES-1
# Method in brief: as §1
# NCI-H2087 = tested on: NCI-H2087
# Method in brief: as §1
# BEN = tested on: BEN
# Method in brief: as §1
# LC-2-ad = tested on: LC-2-ad
# Method in brief: as §1
# NCI-H1734 = tested on: NCI-H1734
# Method in brief: as §1
# H3255 = tested on: H3255
# Method in brief: as §1
# NCI-H838 = tested on: NCI-H838
# Method in brief: as §1
# LU99A = tested on: LU99A
# Method in brief: as §1
# NCI-H1993 = tested on: NCI-H1993
# Method in brief: as §1
smiles,measurement,setting,value
Nc1cccc2c1CN(C1CCC(=O)NC1=O)C2=O (stereo not given) [Lenalidomide] + Nc1nc2[nH]cc(CCc3ccc(C(=O)N[C@@H](CCC(=O)O)C(=O)O)cc3)c2c(=O)[nH]1 [Pemetrexed] (partner 0.2 µM),relative viability,SW 1573; first compound 0.253 µM,0.751
same,relative viability,SW 1573; first compound 0.8 µM,0.856
same,relative viability,SW 1573; first compound 2.53 µM,0.98
same,relative viability,SW 1573; first compound 8 µM,0.812
same,relative viability,NCI-H1355; first compound 0.253 µM,1.08
same,relative viability,NCI-H1355; first compound 0.8 µM,0.784
same,relative viability,NCI-H1355; first compound 2.53 µM,1.13
same,relative viability,NCI-H1355; first compound 8 µM,0.738
same,relative viability,SK-LU-1; first compound 0.253 µM,1.04
same,relative viability,SK-LU-1; first compound 0.8 µM,1.07
same,relative viability,SK-LU-1; first compound 2.53 µM,1.12
same,relative viability,SK-LU-1; first compound 8 µM,1.11
same,relative viability,NCI-H1650; first compound 0.253 µM,0.357
same,relative viability,NCI-H1650; first compound 0.8 µM,0.357
same,relative viability,NCI-H1650; first compound 2.53 µM,0.366
same,relative viability,NCI-H1650; first compound 8 µM,0.53
same,relative viability,UMC-11; first compound 0.253 µM,0.93
same,relative viability,UMC-11; first compound 0.8 µM,0.72
same,relative viability,UMC-11; first compound 2.53 µM,0.84
same,relative viability,UMC-11; first compound 8 µM,0.8
same,relative viability,EKVX; first compound 0.253 µM,0.333
same,relative viability,EKVX; first compound 0.8 µM,0.33
same,relative viability,EKVX; first compound 2.53 µM,0.466
same,relative viability,EKVX; first compound 8 µM,0.396
same,relative viability,NCI-H520; first compound 0.253 µM,0.722
same,relative viability,NCI-H520; first compound 0.8 µM,0.607
same,relative viability,NCI-H520; first compound 2.53 µM,0.79
same,relative viability,NCI-H520; first compound 8 µM,0.689
same,relative viability,NCI-H1792; first compound 0.253 µM,1.12
same,relative viability,NCI-H1792; first compound 0.8 µM,0.629
same,relative viability,NCI-H1792; first compound 2.53 µM,1.08
same,relative viability,NCI-H1792; first compound 8 µM,0.336
same,relative viability,NCI-H2342; first compound 0.253 µM,0.868
same,relative viability,NCI-H2342; first compound 0.8 µM,0.774
same,relative viability,NCI-H2342; first compound 2.53 µM,0.771
same,relative viability,NCI-H2342; first compound 8 µM,0.577
same,relative viability,EMC-BAC-2; first compound 0.253 µM,0.437
same,relative viability,EMC-BAC-2; first compound 0.8 µM,0.392
same,relative viability,EMC-BAC-2; first compound 2.53 µM,0.451
same,relative viability,EMC-BAC-2; first compound 8 µM,0.463
same,relative viability,CAL-12T; first compound 0.253 µM,1.18
same,relative viability,CAL-12T; first compound 0.8 µM,1.32
same,relative viability,CAL-12T; first compound 2.53 µM,1.67
same,relative viability,CAL-12T; first compound 8 µM,1.57
same,relative viability,NCI-H2009; first compound 0.253 µM,0.988
same,relative viability,NCI-H2009; first compound 0.8 µM,1.05
same,relative viability,NCI-H2009; first compound 2.53 µM,1
same,relative viability,NCI-H2009; first compound 8 µM,1.08
same,relative viability,NCI-H2085; first compound 0.253 µM,0.884
same,relative viability,NCI-H2085; first compound 0.8 µM,0.96
same,relative viability,NCI-H2085; first compound 2.53 µM,0.924
same,relative viability,NCI-H2085; first compound 8 µM,0.873
same,relative viability,NCI-H522; first compound 0.253 µM,1.05
same,relative viability,NCI-H522; first compound 0.8 µM,0.912
same,relative viability,NCI-H522; first compound 2.53 µM,1.11
same,relative viability,NCI-H522; first compound 8 µM,0.663
same,relative viability,NCI-H661; first compound 0.253 µM,0.908
same,relative viability,NCI-H661; first compound 0.8 µM,0.935
same,relative viability,NCI-H661; first compound 2.53 µM,0.926
same,relative viability,NCI-H661; first compound 8 µM,0.932
same,relative viability,SK-MES-1; first compound 0.253 µM,0.91
same,relative viability,SK-MES-1; first compound 0.8 µM,0.823
same,relative viability,SK-MES-1; first compound 2.53 µM,0.934
same,relative viability,SK-MES-1; first compound 8 µM,0.888
same,relative viability,NCI-H2087; first compound 0.253 µM,0.65
same,relative viability,NCI-H2087; first compound 2.53 µM,0.642
same,relative viability,NCI-H2087; first compound 8 µM,0.671
same,relative viability,BEN; first compound 0.253 µM,0.787
same,relative viability,BEN; first compound 0.8 µM,0.608
same,relative viability,BEN; first compound 2.53 µM,0.737
same,relative viability,BEN; first compound 8 µM,0.673
same,relative viability,LC-2-ad; first compound 0.253 µM,0.269
same,relative viability,LC-2-ad; first compound 0.8 µM,0.258
same,relative viability,LC-2-ad; first compound 2.53 µM,0.262
same,relative viability,LC-2-ad; first compound 8 µM,0.269
same,relative viability,NCI-H1734; first compound 0.253 µM,0.465
same,relative viability,NCI-H1734; first compound 0.8 µM,0.465
same,relative viability,NCI-H1734; first compound 2.53 µM,0.433
same,relative viability,NCI-H1734; first compound 8 µM,0.479
same,relative viability,H3255; first compound 0.253 µM,0.65
same,relative viability,H3255; first compound 0.8 µM,0.565
same,relative viability,H3255; first compound 2.53 µM,0.585
same,relative viability,H3255; first compound 8 µM,0.605
same,relative viability,NCI-H838; first compound 0.253 µM,0.247
same,relative viability,NCI-H838; first compound 0.8 µM,0.265
same,relative viability,NCI-H838; first compound 2.53 µM,0.241
same,relative viability,NCI-H838; first compound 8 µM,0.265
same,relative viability,LU99A; first compound 0.253 µM,0.188
same,relative viability,LU99A; first compound 0.8 µM,0.183
same,relative viability,LU99A; first compound 2.53 µM,0.169
same,relative viability,LU99A; first compound 8 µM,0.169
same,relative viability,NCI-H1993; first compound 0.253 µM,0.554
same,relative viability,NCI-H1993; first compound 0.8 µM,0.561
same,relative viability,NCI-H1993; first compound 2.53 µM,0.63
same,relative viability,NCI-H1993; first compound 8 µM,0.452

# From the supplement of paper PMC10307832
